Reference: patent publication US20070264679A1, “Method for analyzing the activity of lipoxygenase using a water-soluble substrate” (Chungnam National University Industry Collaboration …, priority 2006, published 2007)

Legend:
[1] = target: T1, Rabbit reticulocyte 15-lipoxygenase (reticulocyte LOX) (Oryctolagus cuniculus, UniProt P12530); experiment: Oxygenation of arachidonoyl lysophospholipids by reticulocyte LOX; type: biochemical; conditions: reticulocyte LOX 2 units/ml, 50 mM phosphate buffer pH 7.4
T1 construct: purchased Biomol Inc. (Plymouth Meeting, Pa., USA)
T1 sequence (P12530 1-663): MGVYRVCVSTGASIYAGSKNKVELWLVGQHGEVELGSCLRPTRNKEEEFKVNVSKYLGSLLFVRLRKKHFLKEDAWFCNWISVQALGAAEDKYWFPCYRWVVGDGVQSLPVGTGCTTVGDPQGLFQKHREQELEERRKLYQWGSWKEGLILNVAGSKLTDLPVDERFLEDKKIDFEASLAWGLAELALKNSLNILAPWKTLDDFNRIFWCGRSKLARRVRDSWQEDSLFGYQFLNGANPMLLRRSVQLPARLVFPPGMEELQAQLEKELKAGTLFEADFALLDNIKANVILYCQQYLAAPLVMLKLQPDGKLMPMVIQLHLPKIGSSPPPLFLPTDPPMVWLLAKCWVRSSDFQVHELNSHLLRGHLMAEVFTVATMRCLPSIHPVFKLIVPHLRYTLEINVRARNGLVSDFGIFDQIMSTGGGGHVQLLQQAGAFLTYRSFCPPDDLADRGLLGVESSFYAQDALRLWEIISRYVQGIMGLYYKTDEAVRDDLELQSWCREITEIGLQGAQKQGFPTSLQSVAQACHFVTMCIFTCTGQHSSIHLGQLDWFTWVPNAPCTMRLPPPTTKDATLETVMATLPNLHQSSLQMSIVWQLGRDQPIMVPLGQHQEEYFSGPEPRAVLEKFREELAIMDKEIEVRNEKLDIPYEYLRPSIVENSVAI
Experimental: Activities of various LOXs were monitored by measuring the increase in absorbance at 234 nm due to the formation of hydroperoxide (ε234=25,000 M^−1 cm^−1) at 25° C. as described before (Smith et al, J. Biol. Chem. 247 (1972) 1038-1047). One unit is defined as the amount of LOXs that can produce one nanomole of conjugated diene per min. The reaction mixture (500 μl) included reticulocyte LOX (2 units/ml) in 50 mM phosphate buffer (pH 7.4), porcine leukocyte LOX (1 unit/ml) in 100 mM phosphate buffer (pH 7.5) containing 5 mM EDTA and 0.03% Tween 20, or soybean LOX-1 (2.5 units/ml) in 50 mM borax buffer (pH 9.0) at 25° C. The reactions were started by including each substrate (100 μM) into the above reaction mixture.
Reticulocyte LOX (2 units/ml), leukocyte LOX (1 units/ml) or soybean LOX-1 (2.5 units/ml) was incubated with each arachidonoyl derivative substrate of various concentrations as described above. The values of kinetic parameters were obtained according to Lineweaver Burke plot analyses as described before (Barroso et al, J. Chromatogr. B. Analyt. Technol. Biomed. Life. Sci. 814 (2005) 21-28).
It is noteworthy that the efficacy of arachidonoyl-lysoPC as a substrate for leukocyte LOX was approximately 10-fold greater than that of arachidonic acid. In an additional study, the oxygenation of arachidonoyl-lysoPC or arachidonoyl-lysoPA by reticulocyte LOX was examined. […]

[2] = target: T2, leukocyte LOX (Sus scrofa, UniProt P16469); experiment: Position specificity of leukocyte LOX in oxygenation of arachidonoyl-lysoPC (SP-HPLC of HETE); type: biochemical, porcine; conditions: predominant product 12-HETE
T2 construct: purchased Cayman Chemical Co. (Ann Arbor, Mich., USA)
T2 sequence (P16469 1-663): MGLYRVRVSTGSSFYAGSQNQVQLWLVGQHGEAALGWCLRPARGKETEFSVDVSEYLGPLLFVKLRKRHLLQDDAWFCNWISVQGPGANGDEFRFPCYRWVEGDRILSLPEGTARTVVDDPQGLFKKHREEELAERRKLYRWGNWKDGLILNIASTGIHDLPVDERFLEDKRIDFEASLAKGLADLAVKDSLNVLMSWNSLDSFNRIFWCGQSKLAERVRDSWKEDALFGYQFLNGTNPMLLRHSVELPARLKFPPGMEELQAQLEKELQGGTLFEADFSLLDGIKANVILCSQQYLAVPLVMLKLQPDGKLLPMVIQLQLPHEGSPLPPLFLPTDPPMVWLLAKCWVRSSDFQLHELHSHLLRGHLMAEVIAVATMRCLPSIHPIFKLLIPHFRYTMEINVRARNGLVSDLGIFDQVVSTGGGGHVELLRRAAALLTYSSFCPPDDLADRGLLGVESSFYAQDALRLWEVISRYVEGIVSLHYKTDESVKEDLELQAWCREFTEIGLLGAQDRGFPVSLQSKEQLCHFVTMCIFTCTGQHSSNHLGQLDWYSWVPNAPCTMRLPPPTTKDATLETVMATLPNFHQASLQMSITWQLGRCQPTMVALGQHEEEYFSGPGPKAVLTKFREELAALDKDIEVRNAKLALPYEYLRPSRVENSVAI
Experimental: After 30 min incubation, the reaction was stopped by the addition of sodium borohydride to reduce hydroperoxy compounds to their corresponding alcohols, which were subjected to alkaline hydrolysis. After 30 min incubation at 60° C. under N2, the mixture was subjected to lipid extraction as described previously (Leon et al, J. Agric. Food. Chem. 52 (2004) 1207-1211). Finally, the lipid extract was analyzed by SP-HPLC system equipped with silica gel column (4 μm, 150×3.9 mm, Waters, USA), which was eluted (1 ml/min) with n-hexane/isopropyl alcohol/acetic acid (100:1:0.05). The identification of hydrolysis products was carried out in comparison with each standard compound, 15-hydroxyeicosatetraenoic acid (HETE) or 12-HETE.
To establish the position of oxygenation of arachidonoyl chain in arachidonoyl-lysoPC, hydroperoxyeicosatetraenoyl-lysoPC was subjected to NaBH4 reduction, followed by saponification in alkaline medium, to afford hydroxyeicosatetraenoic acid, which was further purified by SP-HPLC.

SMILES: CCCCC/C=C\C/C=C\C/C=C\C/C=C\CCCC(=O)OCC(O)COP(=O)([O-])OCC[N+](C)(C)C (centres unmarked) [Arachidonoyl-lysoPC, 1-Arachidonoyl lysophosphatidylcholine]
- Vm/Km value in reticulocyte LOX-catalyzed oxygenation compared with arachidonic acid [1]: somewhat greater than that of arachidonic acid
- minor product behaving like 15-HETE in leukocyte LOX-catalyzed oxygenation [2]: ≤ 5%
